Assay results taken from PMC3225327 (Journal of Biomedical Science, 2011).
“Also recorded” adds a separate entry of the source.

Assays:
Format in all cases: in vivo, BABL/c mice
[1] = test system: ovalbumin-induced airway hyperresponsiveness; test: Airway hyperresponsiveness, FlexiVent (RL, Cdyn) in OVA-sensitized and challenged mice
Description: (§1) According to the schedule (Figure 1), ten female BABL/c mice in each group were sensitized by an intraperitoneal (i.p.) injection of 20 μg of OVA emulsified in 2.25 mg of an aluminum hydroxide gel, prepared from aluminum sulfate hexadecahydrate, in a total volume of 100 μl on days 0 and 14. On day 21, these mice were injected with (i.p.) 100 μl of a mixture of 1% OVA and Freund's complete adjuvant (1:1). Mice were challenged via the airway using 1% OVA in saline for 30 min on days 28, 29, and 30 by ultrasonic nebulization. After the last of OVA challenges, AHR was assessed on day 32 (48 h after 1% OVA provocation) in each group. […] For comparison, sham-treated mice were challenged with saline instead of 1% OVA (non-challenged). […] AHR was assessed using two methods: (1) in anesthetized ventilated mice, AHR was assessed as previously described by measuring changes in the airway resistance (RL, cmH2O/ml/sec) and lung dynamic compliance (Cdyn, ml/cmH2O) after challenge with aerosolized methacholine (MCh, 0.78~25 mg/ml) using the FlexiVent system (SCIREQ, Montreal, Quebec, Canada). Anesthetized (urethane 600 mg/kg and chloralose 120 mg/kg, i.p.), tracheostomized (stainless-steel cannula, 18 G) mice were mechanically ventilated (at 150 breaths/min, with a tidal volume of 10 ml/kg, positive end-expiratory pressure of 3 cmH2O). (2) in unrestrained animals by barometric plethysmography using a whole-body plethysmograph (WBP) and analyzed using software of Life Science Suite P3 Analysis Modules (Gould, LDS Test and Measurement LLC, Valley View, OH, USA). Mice were placed into the main chamber of the WBP, and the baseline enhanced pause (Penh) value was determined.

[2] = test system: ovalbumin-induced airway hyperresponsiveness; test: Airway hyperresponsiveness, barometric plethysmography (Penh) in OVA-sensitized and challenged mice
Description: as §1

[3] = test system: inflammatory cells in bronchoalveolar lavage fluid; test: Inflammatory cell counts in BALF of sensitized and challenged mice; conditions: 3~30 μmol/kg p.o.
Description: According to the schedule (Figure 1), ten female BABL/c mice in each group were sensitized by an intraperitoneal (i.p.) injection of 20 μg of OVA emulsified in 2.25 mg of an aluminum hydroxide gel, prepared from aluminum sulfate hexadecahydrate, in a total volume of 100 μl on days 0 and 14. On day 21, these mice were injected with (i.p.) 100 μl of a mixture of 1% OVA and Freund's complete adjuvant (1:1). Mice were challenged via the airway using 1% OVA in saline for 30 min on days 28, 29, and 30 by ultrasonic nebulization. After the last of OVA challenges, AHR was assessed on day 32 (48 h after 1% OVA provocation) in each group. […] For comparison, sham-treated mice were challenged with saline instead of 1% OVA (non-challenged). […] AHR was assessed using two methods: (1) in anesthetized ventilated mice, AHR was assessed as previously described by measuring changes in the airway resistance (RL, cmH2O/ml/sec) and lung dynamic compliance (Cdyn, ml/cmH2O) after challenge with aerosolized methacholine (MCh, 0.78~25 mg/ml) using the FlexiVent system (SCIREQ, Montreal, Quebec, Canada). Anesthetized (urethane 600 mg/kg and chloralose 120 mg/kg, i.p.), tracheostomized (stainless-steel cannula, 18 G) mice were mechanically ventilated (at 150 breaths/min, with a tidal volume of 10 ml/kg, positive end-expiratory pressure of 3 cmH2O). (2) in unrestrained animals by barometric plethysmography using a whole-body plethysmograph (WBP) and analyzed using software of Life Science Suite P3 Analysis Modules (Gould, LDS Test and Measurement LLC, Valley View, OH, USA). Mice were placed into the main chamber of the WBP, and the baseline enhanced pause (Penh) value was determined. […] Twenty-four hours after Penh determination, these mice were anesthetized with pentobarbital (50 mg/kg, i.p.), and the lungs were lavaged via a tracheal tube with PBS (1 × 1.0 ml, 37°C). After lavage, blood was collected from the jugular vein and allowed to sit so that it would coagulate. The collected bronchoalveolar lavage fluid (BALF) and coagulated blood were respectively centrifuged at 630 g for 7 min and at 3700 g for 10 min at 4°C. After centrifugation, the BALF and serum supernatants were stored at -20°C until determination of cytokines, including interleukin (IL)-2, IL-4, IL-5, tumor necrosis factor (TNF)-α, and interferon (IFN)-γ by flow cytometric methods using mouse T helper (Th)1/Th2 cytokine CBA kits, and of total immunoglobulin (Ig)E or IgG2a using ELISA kits (Pharmingen, San Diego, CA, USA) according to the respective recommendations of the manufacturers. OVA-specific IgE was measured as described previously. Wells were coated with 100 μl of OVA (20 μg/ml) instead of the capture antibody. Levels are expressed in arbitrary units, where 1 arbitrary unit equals the optical density of the sample divided by the optical density of unchallenged mouse serum or BALF (standard). The BALF pellet was resuspended in ACK lysing buffer (1.658 g NH4Cl, 0.2 g KHCO3 and 1.44 mg EDTA in 200 ml of water) to lyse the residual erythrocytes in each sample. The number of inflammatory cells was counted using a hemocytometer (Hausser Scientific, Horsham, PA, USA). Cytospun slides were stained and differentiated in a blinded fashion by counting at least 100 cells under light microscopy. All undetectable data (< 1 pg/ml) of cytokines were taken as 0 pg/ml.

[4] = 3~30 μmol/kg p.o., MCh 6.25~25 mg/ml

COc1cc(O)c2c(c1)O[C@H](c1ccc(OC)c(OC)c1)CC2=O [HDME, hesperetin-7,3'-O-dimethylether]
RL value at the baseline ([1]; 3 μmol/kg p.o.): 1.06 ± 0.05 cmH2O/ml/s
RL value of PBS nebulization ([1]; 3 μmol/kg p.o.): 1.10 ± 0.07 cmH2O/ml/s
RL value at the baseline ([1]; 10 μmol/kg p.o.): 1.08 ± 0.06 cmH2O/ml/s
RL value of PBS nebulization ([1]; 10 μmol/kg p.o.): 1.06 ± 0.04 cmH2O/ml/s
RL value at the baseline ([1]; 30 μmol/kg p.o.): 1.09 ± 0.07 cmH2O/ml/s
RL value of PBS nebulization ([1]; 30 μmol/kg p.o.): 1.07 ± 0.06 cmH2O/ml/s
effect on MCh-induced decrease of lung dynamic compliance (Cdyn) [1, 4]: significantly suppressed
effect on MCh-induced increase of airway resistance (RL) [1, 4]: significantly suppressed
Penh value at the baseline ([2]; 3 μmol/kg p.o.): 2.45 ± 0.04
Penh value with PBS nebulization ([2]; 3 μmol/kg p.o.): 2.43 ± 0.05
Penh value at the baseline ([2]; 10 μmol/kg p.o.): 2.36 ± 0.05
Penh value with PBS nebulization ([2]; 10 μmol/kg p.o.): 2.38 ± 0.06
Penh value at the baseline ([2]; 30 μmol/kg p.o.): 2.43 ± 0.03
Penh value with PBS nebulization ([2]; 30 μmol/kg p.o.): 2.44 ± 0.06
effect on enhancement of Penh values induced by MCh ([2]; 3~30 μmol/kg p.o., 25 and 50 mg/ml MCh): dose-dependently and significantly attenuated
effect on increase in number of eosinophils in BALF [3]: significantly suppressed; also recorded: abolished
effect on increase in number of lymphocytes in BALF [3]: significantly suppressed
effect on increase in number of macrophages in BALF [3]: significantly suppressed
effect on increase in number of neutrophils in BALF [3]: significantly suppressed
effect on increase in number of total inflammatory cells in BALF [3]: significantly suppressed
